Source: US20100004202A1, “Quaternary ammonium-functionalized-POSS compounds” (NDSU Research Foundation, priority 2008, published 2010)

Legend:
[1] = system: Escherichia coli ATCC 12435; assay: Antimicrobial activity of Q-POSS in solution, bacterial log reduction; assay type: cell-based; conditions: equal concentration 9.63×10^−5 moles/ml; 2 hrs at room temperature
Procedure: Antimicrobial characterization. The antimicrobial activity of the Q-POSS in methanol was determined as follows. Stocks of Escherichia coli ATCC 12435 and Staphylococcus aureus ATCC 25923 were maintained weekly at 4° C. on LBA and TSB, respectively. Broth cultures of E. coli (LBB) and S. aureus (TSB) were prepared by inoculating one colony into 10 ml of broth and incubating at 37° C. with shaking. Overnight cultures were pelleted via centrifugation (10 min at 4500 rpm), washed twice in 0.9% NaCl, and re-suspended to a 0.5 McFarland turbidity standard (˜10^8 cells/ml). Q-POSS (2 μL) was added to the bacterial suspension (1 mL) previously dispensed into a well of a sterile 24-well polystyrene plate. The plates were then placed on an orbital shaker and allowed to incubate for 2 hrs at room temperature. Each Q-POSS/bacterial suspension (0.1 mL of each) was immediately transferred to D/E neutralization medium (0.9 ml) in a 1.5 mL microcentrifuge tube, and serially diluted (1:10) in D/E medium. […] After 24 hr of incubation, the plates were removed from the incubator and photographed with a digital camera to quantify bacterial growth in solution. […] Methanol was also evaluated for antimicrobial activity as it was used to solublize the Q-POSS for biological evaluations. […]

[2] = system: E. coli; assay: Minimum inhibitory concentration (MIC); assay type: cell-based; conditions: overnight incubation 37° C., absorbance at 600 nm
Procedure: The minimum inhibitory concentration (MIC), of Q-POSS compounds and non-Q-POSS compounds were compared and the results are shown in Table 4. As used herein, MIC refers to the lowest concentration of an antimicrobial agent that will inhibit the visible growth of a microorganism after overnight incubation. The procedure was carried out by serially diluting the antimicrobial agent in growth medium and adding the appropriate microorganism. Three 200 μl aliquots of each dilution (inoculated with the appropriate microorganism) were transferred to a 96-well plate and allowed to incubate overnight at the appropriate temperature (37° C. for biomedical microorganisms such as E. coli). The plates were then measured for absorbance at 600 nm to determine microbial growth.

[3] = Solubility in methanol; assay type: physicochemical
Excerpt: The octasilane-POSS, which was insoluble in methanol, was rendered soluble in methanol after the derivatization to Q-POSS.

| Compound | Log Reduction against E. coli [1] | MIC against E. coli [2] [µg/mL] | solubility in methanol [3] |
| --- | --- | --- | --- |
| Benzalkonium chloride | 7.0 | 50 | – |
| C[SiH](C)O[Si]12O[Si]3(O[SiH](C)C)O[Si]4(O[SiH](C)C)O[Si](O[SiH](C)C)(O1)O[Si]1(O[SiH](C)C)O[Si](O[SiH](C)C)(O2)O[Si](O[SiH](C)C)(O3)O[Si](O[SiH](C)C)(O4)O1 [octasilane-POSS, Octasilane-POSS] | – | – | insoluble |
